Test results from patent publication US12544335B2, “Treatment approach by targeted delivery of bioactive molecules” (priority 2018, dated 2026).

How the values were obtained:
[1] = In-vitro release of isoniazid from CaS/HA pellets in PBS; assay type: physicochemical; conditions: day 1, PBS
Experimental: Method: Isoniazid was mixed to CaS/HA biomaterial and equal volume pellets were created. Each pellet was then placed in a 1.5 mL tube and filled with 1 mL phosphate buffered saline (PBS). At each time point, the old PBS was removed and frozen until the day of analysis. The tube was refilled with fresh PBS (1 mL). All samples were analyzed spectrophotometrically and the concentration of the released antibiotic was calculated from a standard curve of isoniazid made in PBS.

S. aureus = assay: Example 18: zone of inhibition of materials harvested from rat muscle pouch; assay type: cell-based; conditions: Cerament G / Cerament V, 2 weeks implanted, no systemic antibiotic
Excerpt: Small pellets of pristine hydroxyapatite (HA) of nano or micro size (wherein the micro-HA particles are about 10 μm, wherein the nano-HA particles are less than 200 nm and a majority of the nano-HA particles about 50 nm) were implanted in the abdominal muscle pouch of rats (Group 1). In another set of animals, pellets of calcium sulphate and micro-sized HA (Cerament) containing gentamycin (Cerament G) or vancomycin (Cerament V) were implanted in the muscle pouch of rats (Group 2).
[…] Tibial cortical bone samples were also collected as positive control and muscle tissue from the abdomen was collected as a negative control.
In group 2, no antibiotics were administered systemically, and the implants only contained locally added antibiotics at the time of administration.
All samples were snap frozen in liquid nitrogen and pulverized using a mortar and pestle. Pulverized specimens were then placed in a silicon mold, casted as a pellet and placed in a bacterial culture plate containing S. aureus, a common pathogen found in bone and joint infections.

[2] = Accretion and long-term availability of 14C-ZA in CaS/HA in femoral neck canal; assay type: in vivo, osteoporotic rats; conditions: systemic dose 0.1 mg/kg 2 weeks post implantation
Experimental: Methods: The CaS/HA biomaterial was implanted in the femoral neck canal of 6 osteoporotic rats. The animals (n=3) then received a systemic (sub-cutaneous) dose of ^14C-ZA (0.1 mg/kg, specific radioactivity: 7.1 MBq/mL) 2-weeks post implantation. The animals were sacrificed 6 months post implantation (5 months and 2 weeks post injection). Results: The uptake of ^14C-ZA in the animals that were given a systemic dose of ^14C-ZA was verified using scintillation counting. Results are illustrated in FIG. 6.

[3] = Apatite particle size dependence of 14C-ZA uptake in muscle pouch; assay type: in vivo, rats; conditions: 25 mg particles, 0.1 mg/kg ZA 2 weeks post implantation, 1 day post injection
Experimental: Method: We used 25 mg of micro sized pure apatite particles (size: 10 μm) and 25 mg of nano sized apatite particles (size: <200 nm) and placed them bilaterally in the abdominal muscle pouch of rats. Each animal then received a systemic dose of ^14C-ZA 2-weeks post implantation (Injection dose: 0.1 mg/kg ZA, drug/rat: 40 μg, specific radioactivity: 7.1 MBq/mL, ZA concentration: 1 mg/mL). The rats were sacrificed 1-day post injection and the radioactivity in micro and nano apatite particles was measured using scintillation counting.

[4] = Re-loading of apatite particles by repeated 14C-ZA injection; assay type: in vivo, rats; conditions: injections day 14 and day 27, average
Experimental: Methods: We used 25 mg of micro sized pure apatite particles (size: 10 μm) and 25 mg of nano sized apatite particles (size: <200 nm) and placed them bilaterally in the abdominal muscle pouch of rats. Two different time points were used. At time point 1 (day 14), all animals received the same amount of the radioactive ^14C-ZA. […] All animals were sacrificed a day later and the uptake of the drug measured in the apatite particles of two different sizes using scintillation counting.

[5] = Uptake of systemic 14C-ZA in CaS/HA pellet in abdominal muscle pouch; assay type: in vivo, rats
Experimental: 2-weeks after surgery, the animals were injected with ^14C labelled ZA (0.1 mg/kg, specific radioactivity: 7.1 MBq/mL) via the systemic route (sub-cutaneous) and the radioactivity was measured in 1) the CaS/HA pellet placed in the muscle and 2) surrounding muscle 24-h later.

[6] = In-vitro doxorubicin release from CaS/HA pellets; assay type: physicochemical
Experimental: Methods: Pellets of CaS/HA biomaterial were made by mixing 10 μg Doxorubicin/pellet. Each pellet containing 10 μg Doxorubicin was immersed in 1 mL PBS at two different pH (5 and 7.4). At each time point, old PBS was frozen until further analysis and the tube refilled with 1 mL fresh PBS. The experiment was conducted for a period of 4-weeks. Supernatants were analyzed on a spectro fluorimeter (excitation: 485 nm and emission: 580 nm).

[7] = In-vitro doxorubicin binding to apatite particles; conditions: 10 μg Doxorubicin in 1 mL PBS, 48 h
Experimental: Methods: 5 mg, 10 mg and 20 mg apatite particles were suspended in 1 mL PBS containing 10 μg Doxorubicin and homogenously distributed in the suspension using sonication for 5 min. The specimens were rotated gently on a rotational shaker for 48 h (speed: 50 rpm). After 48 h, the specimens were centrifuged to obtain a pellet of the apatite particles and the supernatant was collected. The apatite particles were then resuspended in 1 mL of PBS, thoroughly pipetted to wash the unbound drug. At this point, the particles were centrifuged again and the supernatant was collected. The washing was repeated once again using the same protocol and the supernatant from the original time and 2 supernatants from the washing steps were measured for fluorescence on a spectro fluorimeter (excitation: 485 nm and emission: 580 nm). Bound doxorubicin to the apatite particles was also detected using fluorescence microscopy. Unbound free drug was used as a control.

[8] = In-vivo doxorubicin binding to nano apatite particles in muscle pouch, fluorescence microscopy; parameters: species or system rats
Experimental: Methods: 25 mg of nano sized apatite particles (size <200 nm) were implanted in the abdominal muscle pouch of rats. Animals were injected with 5 mg/kg doxorubicin re-suspended in PBS 2-weeks post implantation and the animals were sacrificed 1 day later. The specimens were harvested from the implanted muscle pouch and as a positive control, the site of doxorubicin systemic injection (skin under the neck) was also taken for histology. The samples were embedded in paraffin and cut to a thickness of 5 μm. The samples were then analyzed on a fluorescent microscope (excitation: 485 nm and emission: 580 nm).

[9] = Tetracycline uptake in CaS/HA pellet in muscle pouch, fluorescence microscopy; conditions: 1 day later
Experimental: Methods: A pellet of CaS/HA biomaterial (5 mm diameter×2 mm height) was placed in an abdominal muscle pouch of rats. […] 1-day later, the animals were sacrificed and the pellet of CaS/HA as well as surrounding muscle was harvested, fixed in formalin (4%) and embedded in paraffin. The tissue was then cut using a microtome to a thickness of 5 μm. The sections were de-paraffinized using xylene, rehydrated using decreasing ethanol gradient and cleared in water. Finally, the sections were analyzed on a fluorescence microscope (Zeiss, Japan Filter: FITC, Gain: 0, Exposure: 150 ms).

S. aureus ATCC 25923 = assay: In-vivo biomodulation of HA pellets by systemic TET, disk diffusion assay; assay type: cell-based; conditions: TET 25 mg/rat i.p. for 3 days, 24 h after 3rd injection
Experimental: METHODS: (1) In-vitro binding experiment: Nano-HA powder of <200 nm particle size, with a majority of the particles being in size of about 50 nm (100 mg; Fluidnova) was measured in 2 mL microcentrifuge tubes in triplicates and 1 mL of TET solution (4 μg/mL) was added. After vortex mixing, tubes were kept on a rotator at 180 RPM for 1, 6, and 12 h. At desired time points, the tubes were removed and centrifuged at 14000 RPM for 2 min. The supernatant was discarded and sediments were then “washed” 4 times by adding 1 mL of saline (NaCl 0.9%) followed by vortex mixing and centrifuging at 14000 RPM for 2 min. After 4 washing-cycles, supernatants were discarded and 60 μL of hyaluronic acid (HAD, 1 mg/mL) was added to the sediments and mixed. Pastes were then transferred to an elastic mold (Ø=4.7 mm) and placed at −20° C. for an hour to freeze nano-HA paste into pellet. Frozen pellets were removed from the molds and brought to room temperature. […] After overnight incubation at 37° C., the diameter of the zone of inhibition (ZOI) around the pellets were measured.
(2) In-vivo biomodulation: Pellets of nano-/micro-HA were prepared by mixing 100 mg of nano-/micro-HA (Fluidnova, wherein the micro-HA particles are about 10 μm, and wherein the nano-HA particles are less than 200 nm and a majority of the nano-HA particles about 50 nm) with 60 and 80 μL of HAD, (1 mg/mL) respectively. […]

[10] = Long term elution of gentamycin from HA/Sulphate carrier; assay type: physicochemical

## NNC(=O)c1ccncc1 [Isoniazid]
[1]
  antibiotic released from CaS/HA: approximately 60%

## CN[C@H](CC(C)C)C(=O)N[C@H]1C(=O)N[C@@H](CC(N)=O)C(=O)N[C@H]2C(=O)N[C@H]3C(=O)N[C@H](C(=O)N[C@H](C(=O)O)c4cc(O)cc(O)c4-c4cc3ccc4O)[C@H](O)c3ccc(c(Cl)c3)Oc3cc2cc(c3O[C@@H]2O[C@H](CO)[C@@H](O)[C@H](O)[C@H]2O[C@H]2C[C@](C)(N)[C@H](O)[C@H](C)O2)Oc2ccc(cc2Cl)[C@H]1O [Vancomycin]
S. aureus
  inhibition of bacterial growth by CaS/HA with locally added antibiotic: could not inhibit bacterial growth

## O=P(O)(O)C(O)(Cn1ccnc1)P(=O)(O)O [ZA, Zoledronic Acid]
[2]; listed as zoledronic acid
  time the drug stays in the apatite material: 6 months

## O=P(O)(O)C(O)(Cn1ccnc1)P(=O)(O)O [^14C-ZA]
[2]
  time the drug stays in the apatite material: at least 6 months
[3]
  uptake of 14C-ZA, micro (10 μm) vs nano (<200 nm) apatite particles: higher in micro-apatite particles compared to nano-apatite particles in 4 out of 5 specimens
[4]; micro-particles (10 μm)
  increase of counts of 14C-ZA after 2 injections compared to one injection: 72%
[4]; nano-apatite particles (<200 nm)
  higher counts of 14C-ZA after 2 injections compared to one injection: 77%
[5]; 0.1 mg/kg sub-cutaneous 2 weeks after surgery, measured 24 h later
  uptake of 14C-ZA in CaS/HA biomaterial: obvious
[5]; 0.1 mg/kg sub-cutaneous, 24 h later
  radioactivity in muscle surrounding the implant: very low radioactive counts

## COc1cccc2c1C(=O)c1c(O)c3c(c(O)c1C2=O)C[C@@](O)(C(=O)CO)C[C@@H]3O[C@H]1C[C@H](N)[C@H](O)[C@H](C)O1 [doxorubicin]
[6]; after day 3, up to 4 weeks
  release at later time points: No further release
[6]; day 1 and 3, PBS pH 5 and 7.4, 10 μg/pellet
  burst release of the drug from CaS/HA: 20-35%
[6]; pH 5 vs 7.4
  release in low pH group compared with pH 7.4: slightly higher release
[7]; 5 mg apatite particles
  drug bound to apatite particles: approximately 10%
[7]; 10 mg apatite particles
  drug bound to apatite particles: 30%
[7]; 20 mg apatite particles
  drug bound to apatite particles: approximately 75%
[8]; 5 mg/kg, 1 day after injection, positive control site
  fluorescence at the site of injection: Strong fluorescent staining
[8]; 5 mg/kg, 1 day later
  fluorescence in muscle 1 cm distal from the implant: did not show any fluorescence
[8]; 25 mg nano apatite, 5 mg/kg 2 weeks post implantation, 1 day later
  fluorescence in apatite particles and area immediately around: relatively weak but positive signal

## CN(C)[C@@H]1C(O)=C(C(N)=O)C(=O)[C@@]2(O)C(O)=C3C(=O)c4c(O)cccc4[C@@](C)(O)[C@H]3C[C@@H]12 [tetracycline]
[9]; 25 mg/kg sub-cutaneous 2 weeks after surgery
  uptake of tetracycline in CaS/HA biomaterial: clear uptake
[9]; 25 mg/kg sub-cutaneous
  uptake of tetracycline in surrounding muscle: no uptake
S. aureus ATCC 25923
  ZOI of kidney samples: 14-17 mm
  ZOI of liver samples: 10-12 mm

## Gentamycin
S. aureus
  inhibition of bacterial growth by CaS/HA with locally added antibiotic: could not inhibit bacterial growth
[10]; at one month
  release of gentamycin from biphasic HA/Sulphate carrier: complete release
[10]; trend line, elution over 2 months
  time by which the Apatite/Sulphate material releases gentamycin: ≤ 4 weeks
